Test results reported in article PMC1079869 (BMC Neuroscience, 2005).
Square brackets hold non-standard residues; d marks the D form. Peptide text beside a SMILES is read from it.

Columns and labels:
[1] = molecular target: T1, c-MYC-tagged human delta opioid receptor (Homo sapiens, UniProt P41143); assay: Tb-DeltI saturation binding on CHO/MYChDOR cell membranes (time-resolved fluorometry); details: 0.01 – 781.25 nM Tb-DeltI; 6 μg membranes; pH 7.5, 90 min room temperature; nonspecific with 1 μM DeltI; Figure 4B
T1 sequence (P41143 whole entry): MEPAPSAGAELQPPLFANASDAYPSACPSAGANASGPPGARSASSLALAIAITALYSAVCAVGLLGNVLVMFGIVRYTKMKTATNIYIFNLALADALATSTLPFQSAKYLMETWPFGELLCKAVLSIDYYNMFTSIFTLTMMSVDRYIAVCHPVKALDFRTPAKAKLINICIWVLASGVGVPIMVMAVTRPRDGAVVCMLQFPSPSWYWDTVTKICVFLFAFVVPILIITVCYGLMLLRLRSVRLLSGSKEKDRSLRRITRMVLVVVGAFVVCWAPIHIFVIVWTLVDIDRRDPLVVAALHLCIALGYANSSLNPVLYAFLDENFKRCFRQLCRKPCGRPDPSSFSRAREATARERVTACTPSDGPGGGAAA
Protocol: The cells were collected with PBS + 0.2 % EDTA (w/v) and washed with cold PBS. The CHO/MYChDOR or CHO-K1 cells were suspended into ice-cold 50 mM Tris/HCl, 5 mM EDTA, pH 7.5 and homogenized with Potter S-homogenisator on ice. The homogenate was centrifuged 47800 × g at 4°C and the pellet was suspended into the Tris/EDTA buffer and the homogenization/centrifugation was repeated. The pellet was suspended into cold binding assay incubation buffer and the protein content was measured with the Bradford method.
6 μg of crude membrane preparations or whole cells (25 000 cell/well) that were plated one day before experiment and fixed with 4 % PFA for 10 min at room temperature, were used in the saturation binding experiments. The whole cell assays were carried out on normal cell culture plates and the assays with membrane preparations on special filter plates (Pall Life Sciences). […] Thereafter, 40 μl Delfia enhancer that changes the pH of the assay solution appropriate for Tb-fluorescence was added, and the plates were further incubated for 5 min on a shaker. The time-resolved fluorescence of the released Tb-ion was measured with Victor^2 Multilabel counter (Perkin Elemer Wallac, Turku, Finland).

[2] = molecular target: T1, c-MYC-tagged human delta opioid receptor; assay: Tb-DeltI binding on CHO/MYChDOR whole cells, effect of (1DMe)NPYF (time-resolved fluorometry); details: whole cells, relative BMAX, n = 3
Protocol: 6 μg of crude membrane preparations or whole cells (25 000 cell/well) that were plated one day before experiment and fixed with 4 % PFA for 10 min at room temperature, were used in the saturation binding experiments. The whole cell assays were carried out on normal cell culture plates and the assays with membrane preparations on special filter plates (Pall Life Sciences). The cells or membranes were incubated in 50 mM Tris/HCl pH 7.5; 2.5 mM MgCl2; 60 mM NaCl; 25 μM EDTA, 0.2 % BSA (w/v) for 90 min at room temperature with 0.01 – 781.25 nM Tb-DeltI in the presence or absence of 1 or 5 μM unlabeled DeltI. To study the effect of (1DMe)NPYF on the Tb-DeltI binding, 1–1000 nM (1DMe)NPYF was added together with unlabeled DeltI. After the incubation the unbound Tb-DeltI was removed by washing the plates four times with 50 mM Tris/HCl pH 7.5; 2.5 mM MgCl2. Vacuum pump system was used to wash the filter plates. Since the chelate-bound Tb-ion is nonfluorescent, it needed to be released from the complex. In order to release Tb-ion from the chelate 150 μl Delfia enhancement solution was added to the wells and the plates were incubated on a shaker for 15 min. Thereafter, 40 μl Delfia enhancer that changes the pH of the assay solution appropriate for Tb-fluorescence was added, and the plates were further incubated for 5 min on a shaker. The time-resolved fluorescence of the released Tb-ion was measured with Victor^2 Multilabel counter (Perkin Elemer Wallac, Turku, Finland).

## CC(C)[C@H](NC(=O)[C@H](CC(=O)O)NC(=O)[C@H](Cc1ccccc1)NC(=O)[C@@H](C)NC(=O)[C@H](Cc1ccc(O)cc1)NC(=O)[C@@H](N)CS)C(=O)N[C@H](C(=O)NCC(N)=O)C(C)C [Tb-DeltI] (H-CY[dA]FDVVG-NH2; N-terminus and C-terminus assumed)
[1]
  Tb-DeltI binding to cell membranes: dose-dependently and the binding was saturable at a nanomolar range
[2]; 0 nM (1DMe)NPYF
  BMAX for Tb-DeltI: 1.60 ± 0.06 pmol/cell
[2]; in presence of 1 nM (1DMe)NPYF, *** p < 0.001 vs absence of (1DMe)NPYF
  BMAX for Tb-DeltI: 0.70 ± 0.08 *** pmol/cell
[2]; in presence of 10 nM (1DMe)NPYF, *** p < 0.001 vs absence of (1DMe)NPYF
  BMAX for Tb-DeltI: 0.89 ± 0.06 *** pmol/cell
[2]; in presence of 100 nM (1DMe)NPYF
  BMAX for Tb-DeltI: 1.42 ± 0.11 pmol/cell
[2]; in presence of 1000 nM (1DMe)NPYF
  BMAX for Tb-DeltI: 1.49 ± 0.10 pmol/cell
